# Experimental data from article PMC11091117, “A fluorescently-tagged tick kinin neuropeptide triggers peristalsis and labels tick midgut muscles” (Scientific Reports, 2024).
# Entries after “also recorded” stand apart in the source; their conditions may differ.
# Columns and labels:
# [1] = tested on: tick kinin receptor (recombinant R. microplus receptor, CHO-K1 BMLK3 cells); assay: Cellular end-point fluorescence calcium mobilization assay, BMLK3 cells; format: cell-based, Rhipicephalus microplus
# Excerpt: Three peptides were used in this study. These included: 1) the ligand for the endogenous tick kinin receptor from Rhipicephalus sanguineus, Rhisa-kinin 8 peptide of sequence GTGEDQAFSPWGamide (Rhisa-K-8; RK8; of identical sequence to Rhimi-K-8 in Rhipicephalus microplus)[48], 2) the same peptide but fluorescently labeled at the N-terminus with tetramethylrhodamine (TMR) a red fluorescent dye, designated TMR-Rhisa-K-8 (TMR-RK8), and 3) a labeled peptide synthesized with the scrambled sequence of the kinin ligand, designated TMR-Scrambled. The sequence of TMR-RK8 was TMR-C-GTGEDQAFSPWGamide). The TMR-Scrambled kinin (TMR-C-GTQWGPGFEADSamide) served as a negative control for tissue labeling. All peptides were custom-synthesized and purchased from GenScript (Piscataway, NJ, USA) with a purity of ≥ 95% and the cysteine in bold in both sequences was added to attach the label. Experiments were replicated with independently synthesized batches (4 mg each) of labeled and unlabeled peptides, for reproducibility. Unlabeled RK8 was used as a competitive ligand to verify target-specific binding of the labeled TMR-RK8 (see Ligand Competition Assay). For cell assays, the peptide stock solutions (100 µM) were made in 1% dimethyl sulfoxide (DMSO) in Hank’s balanced salt solution (HBSS, Thermo Fisher, Waltham, USA). For fluorescent cell labeling, peptide working solutions (10 µM) were prepared in HBSS from stock solutions. For assays on the midgut, peptides were solubilized and diluted in a tick physiological saline consisting of 140 mM NaCl, 5 mM KCl, 1 mM MgCl2, 5 mM CaCl2, 4 mM NaHCO3, and 5 mM HEPES, pH 7.2[49].
# The tick kinin receptor is stably expressed in the recombinant CHO-K1 cell line designated BMLK3 (Boophilus microplus leucokinin receptor 3) that was constructed and selected as described by Holmes, et al.[47]. The CHO-K1 cells had been obtained from the American Type Culture Collection (ATCC) for transfection with the expression construct. This cell line has been kept in the laboratory since 2003. Cells that were transfected only with an empty plasmid are referred to as “vector-only” (V/O) cells and were used as a negative control. Before all experiments, the BMLK3 cell line or V/O cells were separately cultured in T-75 flasks with selective medium (F-12 K medium containing 10% FBS and 800 μgmL^−1 of G418 sulfate) for one to two passages in a humidified incubator at 37 °C and 5% CO2.
# A fluorescence-based intracellular calcium mobilization end-point assay described by Xiong, et al.[50] was used to confirm the activity of the TMR-labeled RK8 peptide on a cell line expressing the tick kinin receptor. For this, BMLK3 and V/O cells were cultured in F-12 K medium (1% FBS and 400 μgmL^−1- of G418 Sulfate). The cells were seeded in a 96-well plate with 20,000 cells per well and incubated overnight at 37 °C and 5% CO2. The next morning, cells were prepared for the assay following the manufacturer’s instructions for the Fluo-8 Calcium Flux Assay Kit – NoWash (Abcam, Cambridge, United Kingdom). The F-12 K medium in the plate was removed by inverting the plate and gently blotting on paper towels. […] The calcium fluorescence signal was detected by a CLARIOstar (BMG LABTECH, Chicago, IL, United States) plate reader set to read at the fluorescence plate-mode with excitation and emission wavelengths of 490 and 525 nm at 29 °C. Calcium responses were read immediately after the addition of 10 µL of either TMR-RK8, unlabeled RK8, or blank solvent (1% DMSO in HBSS). […]
# [2] = tested on: tick kinin receptor (recombinant R. microplus receptor, CHO-K1 BMLK3 cells); assay: Confocal visualization of recombinant kinin receptor on live BMLK3 cells with fluorescently labeled kinin peptide; format: binding, Rhipicephalus microplus
# Excerpt: (§1) Three peptides were used in this study. These included: 1) the ligand for the endogenous tick kinin receptor from Rhipicephalus sanguineus, Rhisa-kinin 8 peptide of sequence GTGEDQAFSPWGamide (Rhisa-K-8; RK8; of identical sequence to Rhimi-K-8 in Rhipicephalus microplus)[48], 2) the same peptide but fluorescently labeled at the N-terminus with tetramethylrhodamine (TMR) a red fluorescent dye, designated TMR-Rhisa-K-8 (TMR-RK8), and 3) a labeled peptide synthesized with the scrambled sequence of the kinin ligand, designated TMR-Scrambled. The sequence of TMR-RK8 was TMR-C-GTGEDQAFSPWGamide). The TMR-Scrambled kinin (TMR-C-GTQWGPGFEADSamide) served as a negative control for tissue labeling. […]
# (§2) The BMLK3 and V/O cells (5000–10,000 cells) were seeded separately in 200 µL selective media onto the two chambers of the cover glass (Lab-Tek Chambered Coverglass, 4.2 cm^2 area, #1.0 German borosilicate glass, sterile, Cat # 155,380, Thermo Fisher Scientific Inc., Walthams, MA) and grown in the incubator overnight at 37 °C and 5% CO2. The next day, cells would be ready for fluorescent labeling: the selective media was replaced with 200 µL HBSS to rinse the cells. […] Images were analyzed and computer-colored using Fiji/ImageJ (National Institutes of Health, Bethesda, MD). […]
# [3] = tested on: vector-only (V/O) CHO-K1 cells; assay: Confocal visualization on live vector-only cells with fluorescently labeled kinin peptide; format: binding; details: 10 µM labeled peptide, 1 min, HBSS, confocal Leica SP8
# Excerpt: as §1, §2
substance,measurement,setting,value
TMR-C-GTGEDQAFSPWGamide [TMR-RK8],intracellular calcium fluorescence response / receptor activation (in words),"[1]; 10 nM to 10 μM (four concentrations), 1% DMSO in HBSS, Fluo-8, Ex 490/Em 525 nm, 29 °C, read 60 s at 1 s intervals, average raw fluorescence units of 4 technical replicates, simple linear regression","activated and labeled the recombinant R. microplus receptor expressed in CHO-K1 cells; also recorded: elicited a dose-dependent intracellular calcium fluorescence response; also recorded: functionally activates the tick recombinant kinin receptor in BMLK3 cells; also recorded: activated the receptor in a dose response fashion, similarly to the unlabeled RK8 peptide"
same,"fluorescence units at highest concentration, TMR-RK8 compared with RK8 (in words)","[1]; highest concentration assayed 10 µM, Fluo-8, 4 technical replicates",maximal and similar for the highest concentration assayed of 10 µM
same,effect of TMR label on peptide bioactivity (in words),[1]; overlap of confidence intervals of cell responses to TMR-RK8 and RK8,the TMR fluorescent label did not impair peptide bioactivity
same,"labeling of BMLK3 cells, Fig. S2 (in words)","[2]; 1 µM TMR-RK8, confocal Leica SP8 with DIC, 1.1 µm Z-step, 13 slices",observed in most cells
same,labeling of BMLK3 cells (in words),"[2]; live BMLK3 cells, 10 µM labeled peptide, 1 min, HBSS, confocal Leica SP8, Ex 542 nm, Em 572–759 nm",showed specific labeling; also recorded: observed only in BMLK3 cells
same,labeling of vector-only cells (in words),[3],not labeled by either peptide
